Paper PMC11401107 (Heliyon, 2024)
Each block holds one compound with its values, some of them ahead of it.

Assays:
[1] = target: T1, soybean 15-LOX (Glycine max, UniProt P08170); assay: 15-LOX inhibition assay; format: biochemical; details: for 15-LOX assay Inhibition (%) at 0.25 mM / 15-LOX assay IC50 (μM) / IC50: Mean ± SEM, n = 3; for IC50: read-out: 15-LOX assay IC50; for inhibition at 250 µM: read-out: 15-LOX assay Inhibition (%) at 0.25 mM
T1 sequence (P08170 1-839): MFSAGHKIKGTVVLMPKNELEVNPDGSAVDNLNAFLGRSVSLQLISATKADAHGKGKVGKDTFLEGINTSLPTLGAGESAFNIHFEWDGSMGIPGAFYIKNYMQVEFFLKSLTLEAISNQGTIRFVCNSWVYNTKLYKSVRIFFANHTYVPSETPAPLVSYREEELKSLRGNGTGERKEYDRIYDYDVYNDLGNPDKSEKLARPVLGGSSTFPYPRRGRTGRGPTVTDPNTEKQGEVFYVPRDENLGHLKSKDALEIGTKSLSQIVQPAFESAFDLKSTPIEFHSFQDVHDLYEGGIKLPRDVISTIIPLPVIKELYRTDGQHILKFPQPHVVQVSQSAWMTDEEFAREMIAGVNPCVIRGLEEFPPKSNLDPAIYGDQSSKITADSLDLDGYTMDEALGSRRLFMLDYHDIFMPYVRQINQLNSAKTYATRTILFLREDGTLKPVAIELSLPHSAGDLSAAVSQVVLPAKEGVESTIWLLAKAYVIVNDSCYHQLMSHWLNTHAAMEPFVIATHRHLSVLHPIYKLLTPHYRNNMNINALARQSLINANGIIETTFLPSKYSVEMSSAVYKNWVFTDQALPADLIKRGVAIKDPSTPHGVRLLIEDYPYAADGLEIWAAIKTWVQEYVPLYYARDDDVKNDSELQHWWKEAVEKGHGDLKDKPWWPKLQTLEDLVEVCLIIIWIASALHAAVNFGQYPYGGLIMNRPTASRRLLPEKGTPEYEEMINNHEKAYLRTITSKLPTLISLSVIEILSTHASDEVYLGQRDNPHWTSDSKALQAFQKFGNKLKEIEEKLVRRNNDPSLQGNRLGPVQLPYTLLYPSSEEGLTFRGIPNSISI

[2] = system: human blood mononuclear cells (MNCs); assay: Cell viability assay; format: cell-based; details: MNCs; 0.25 mM; Mean ± SEM, n = 3
[3] = Cell viability assay; format: cell-based, human; details: human, human blood mononuclear cells (MNCs), pH 7.4
[4] = system: LOX; details: LOX inhibition; cited from earlier work

15-LOX assay Inhibition (%) at 0.25 mM [1]: 56.49 ± 1.59%
15-LOX assay IC50 (μM) [1]: inactive
IC50 [1]: > 200 µM
Structure (SMILES): CCn1c(SC(C)C(=O)Nc2c(C)cccc2C)nnc1C1CCN(C(=O)Nc2ccccc2)CC1 (centres unmarked) [7k, 2-(5-(1-Phenylcarbamoylpiperdine-4-yl)-4-ethyl-4H-1,2,4-triazol-3-ylthio)-N-2,6-dimethylphenylpropanamide]
MTT assay Cell viability (%) at 0.25 mM [2]: 75.67 ± 2.8%

15-LOX assay Inhibition (%) at 0.25 mM [1]: 57.37 ± 1.46%
15-LOX assay IC50 (μM) [1]: inactive
IC50 [1]: > 200 µM
Structure (SMILES): CCn1c(SC(C)C(=O)Nc2cc(C)cc(C)c2)nnc1C1CCN(C(=O)Nc2ccccc2)CC1 (centres unmarked) [7m, 2-(5-(1-Phenylcarbamoylpiperdine-4-yl)-4-ethyl-4H-1,2,4-triazol-3-ylthio)-N-3,5-dimethylphenylpropanamide]
MTT assay Cell viability (%) at 0.25 mM [2]: 78.24 ± 2.7%

inhibition at 250 µM [1]: 93.8 ± 1.27%
Structure (SMILES): O=c1cc(-c2ccccc2)oc2cc(O)c(O)c(O)c12 [Baicalein, reference compound]

Structure (SMILES): COc1cc(/C=C/C(=O)CC(=O)/C=C/c2ccc(O)c(OC)c2)ccc1O [Curcumin, reference compound]
viability at 2 h, 0.25 mM [3]: 71.8 ± 2.8%

Structure (SMILES): O=P1(N(CCCl)CCCl)NCCCO1 (centres unmarked) [Cyclophosphamide, reference compound]
viability at 2 h, 0.25 mM [3]: 58.5 ± 2.6%

inhibition at 250 µM [1]: 96.6 ± 1.24%
Structure (SMILES): O=c1c(O)c(-c2ccc(O)c(O)c2)oc2cc(O)cc(O)c12 [Quercetin, reference compound]

Structure (SMILES): COc1ccc(-c2csc3nc(-c4ccccc4)c(NC(C)(C)CC(C)(C)C)n23)cc1 [i, 3-(4-methoxyphenyl)-N-(2,4,4-trimethylpentane-2-yl)-6-phenylimidazo [2,1-b]thiazol-5-amine]
IC50 [4]: 11.5 ± 0.78 µM

Structure (SMILES): Cc1ccc(NN=C2C(=N)N(c3ccc(S(N)(=O)=O)cc3)N=C2N)cc1 [ii, 4-{3-amino-4-[(4-methylphenyl)-hydrazono]-5-imino-4,5-dihydropyrazol-1-yl}-benzenesulfonamide]
IC50 [4]: 1.92 ± 0.01 µM
